Inhibition data for 14 compounds are collected here from US6187802A, “Substituted 4-arylmethylene-2-imino-2,3-dihydrothiazoles and derivatives and their pharmaceutical use” (Knoll Aktiengesellschaft, priority 1997, dated 2001).

Where a name gives a salt, the structure may show the parent alone. Bounds are passed on as bounds.

Assay [1] concerns the target T1, noradrenaline (NA) reuptake sites (Rattus norvegicus, UniProt Q63380).
T1 construct: Frontal cortical tissue from the brains of male Sprague-Dawley rats; from tissue; host or cells: rat brain frontal cortex (crude synaptosomes in A3, washed membranes in A6)
Put plainly: displacement of [3H]nisoxetine from noradrenaline reuptake sites, frontal cortical membranes. The conditions noted are these: 10^-6 M test compound, [3H]nisoxetine 0.6 nM, one test only, read-out: NA uptake (% displacement of specific binding of tritiated ligand). On the procedure: Frontal cortical tissue from the brains of male Charles River rats weighing 150-250 g was homogenised in ice-cold 50 mM Tris-HCl, pH 7.4 (at 25° C.) containing 120 mM sodium chloride and 5 mM potassium chloride (Tris buffer; 1:60 w/v) using a Kinematic polytron (speed setting 6 for 30 seconds) and centrifuged at 40,000 g for 10 minutes. The supernatant was discarded and the pellet rehomogenised in Tris buffer, 1:60 w/v, and centrifuged at 40,000 g for 10 minutes. This step was repeated twice more so that, in total, the brain tissue was homogenised and centrifuged four times. The final pellet was resuspended in 50 mM Tris-HCl, pH 7.4 containing 300 mM sodium chloride and 5 mM potassium chloride (equivalent to 25 mg wet weight of tissue/ml) and used immediately in the binding assay. All centrifugations were performed at 4° C.
Membranes (400 μl; equivalent to 10 mg wet weight of tissue/tube) were incubated with 50 μl [^3 H]nisoxetine at a single concentration of 0.6 nM and 50 μl of distilled water (total binding) or 50 μl of test compound (10^-6 M) or 50 μl of mazindol (1 μM; non-specific binding) for 4 h at 4° C.
Membrane bound radioactivity was recovered by filtration under vacuum through Skatron 11734 filters using a Skatron cell harvester. Filters were rapidly washed with ice-cold 50 mM Tris-HCl, pH 7.4 containing 120 mM sodium chloride and 5 mM potassium chloride (wash setting 9,9,0) and radioactivity determined by liquid scintillation counting (1 ml Packard MV Gold scintillator).
(§1) For each of these tests measuring the ability of compounds of Formula I to displace standard ligands from dopamine (DA), 5-hydroxytryptamine (5-HT) and noradrenaline (NA) reuptake sites in vitro, the percentage displacement of specific binding of tritiated ligand by 10^-6 M test compound was calculated in the following way:
(§2) Firstly, specific binding of tritiated ligand in the absence (A) and presence (B) of test compound was determined:
(§3) In the absence of compound:
(§4) A (dpm)=Total binding (dpm)-Non-specific binding (dpm)
(§5) In the presence of compound (10^-6 M):
(§6) B (dpm)=Binding at 10^-6 M (dpm)-Non-specific binding (dpm)
(§7) The specific binding of tritiated ligand in the presence (B) of compound was then converted to a percentage of specific binding of tritiated ligand in the absence (A) of compound:
(§8) % Specific binding at 10^-6 M=B (dpm)/A(dpm)×100
(§9) The percentage displacement of specific binding of trtiated ligand by the test compound (10^-6 M) was then obtained by subtraction of the percentage specific binding in the presence of compound from the percentage specific binding in the absence of compound, which is taken as the maximum binding and so equals 100%:
(§10) % Displacement at 10^-6 M=100-% Specific binding at 10^-6 M.
(§11) The values given below in Table 2 for examples 6 to 76 are % displacement of specific binding of tritiated ligand by 10^-6 M test compound and represent results from one test only. IA refers to <50% displacement.
(In general: In a radioligand displacement assay an active substance lowers the binding of a labelled ligand.)

Assay [2] concerns the target T2, 5-hydroxytryptamine (5-HT) reuptake sites (Rattus norvegicus, UniProt P31652).
T2 construct: Frontal cortical tissue from the brains of male Sprague-Dawley rats; from tissue; host or cells: rat brain frontal cortex (crude synaptosomes in A2, washed membranes in A5)
As to the kind of experiment: displacement of [3H]paroxetine from 5-HT reuptake sites, frontal cortical membranes. In kind it is binding. The conditions noted are these: 10^-6 M test compound, [3H]paroxetine 30 pM, one test only, read-out: 5-HT uptake (% displacement of specific binding of tritiated ligand). On the procedure:
Frontal cortical tissue from the brains of male Charles River rats weighing 150-250 g was homogenised in ice-cold 0.25M sucrose (1:30 w/v) using a Kinematic polytron (speed setting 6 for 30 seconds) and centrifuged at 1000 g for 12 minutes. The supernatant was stored on ice and the pellet was resuspended in 0.25M sucrose (1:20 w/v) and centrifuged at 850 g for 10 minutes. Combined supernatants were diluted to 1:100 w/v with ice-cold 50 mM Tris-HCl, pH 7.5 (at 25° C.) containing 120 mM sodium chloride and 5 mM potassium chloride (Tris buffer) and centrifuged at 40,000 g for 10 minutes. The resulting pellet was resuspended in 50 mM Tris buffer (1:100 w/v) and recentrifuged at 40,000 g for 10 minutes. The final pellet was resuspended in 50 mM Tris buffer (equivalent to 2 mg wet weight of tissue/ml) and used immediately in the binding assay. All centrifugations were carried out at 4° C.
Membranes (1000 μl; equivalent to 2 mg wet weight of tissue/tube) were incubated with 200 μl [^3 H]paroxetine at a single concentration of 30 pM and 200 μl of distilled water (total binding) or 200 μl of test compound (10^-6 M) or 200 μl of citalopram (1 μM; non-specific binding) for 2 h at 22° C.
Membrane bound radioactivity was recovered by filtration under vacuum through Whatman GFIC filters using a Brandel cell harvester. Filters were rapidly washed with 16 ml ice-cold 50 mM Tris buffer and radioactivity determined by liquid scintillation counting (2 ml Packard MV Gold scintillator).
as §1, §2, §3, §4, §5, §6, §7, §8, §9, §10, §11

Assay [3] concerns the target T3, dopamine (DA) reuptake sites (Rattus norvegicus, UniProt P23977).
T3 construct: Striatal tissue from the brains of male Charles River rats weighing 150-250 g; from tissue; host or cells: rat brain striatum (crude synaptosomes in A1, washed membranes in A4)
As to the kind of experiment: displacement of [3H]GBR 12935 from dopamine reuptake sites, striatal membranes. The format is binding. The conditions noted are these: 10^-6 M test compound, [3H]GBR 12935 1 nM, one test only, read-out: DA uptake (% displacement of specific binding of tritiated ligand). On the procedure: Striatal tissue from the brains of male Charles River rats weighing 150-250 g was homogenised in ice-cold 0.32M sucrose (1:80 w/v) using a motor driven teflon pestle (12 strokes, 800 rpm) and centrifuged at 1000 g for 12 minutes. The supernatant was stored on ice and the pellet was resuspended in 0.32M sucrose (1:80 w/v) and centrifuged at 850 g for 10 minutes. Combined supernatants were diluted to 1:320 w/v with ice-cold 50 mM Tris-HCl, pH 7.4 (at 25° C.) containing 200 mM sodium chloride and 5 mM potassium chloride (Tris buffer) and centrifuged at 40,000 g for 10 minutes. The resulting pellet was resuspended in 10 ml of 50 mM Tris buffer, incubated at 37° C. for 10 min, diluted in 50 mM Tris buffer (1:320 w/v) and recentrifuged at 40,000 g for 10 minutes. The final pellet was resuspended in 50 mM Tris buffer (equivalent to 1.25 mg wet weight of tissue/ml) and used immediately in the binding assay. All centrifugations were carried out at 4° C.
Membranes (800 μl; equivalent to 1 mg wet weight of tissue/tube) were incubated with 100 μl [^3 H]GBR 12935 at a single concentration of 1 nM and 100 μl of distilled water (total binding) or 100 μl of test compound (10^-6 M) or 100 μl of mazindol (1 μM; non-specific binding) for 90 min at 4° C.
Membrane bound radioactivity was recovered by filtration under vacuum through Whatman GF/C filters, pre-soaked for 1 h in 0.5% polyethylenimine,using a Brandel cell harvester. Filters were rapidly washed with 16 ml of ice-cold 50 mM Tris-HCl, pH 7.4 and radioactivity determined by liquid scintillation counting (2 ml Packard MV Gold scintillator).
as §1, §2, §3, §4, §5, §6, §7, §8, §9, §10, §11

T2 sequence (P31652 whole entry): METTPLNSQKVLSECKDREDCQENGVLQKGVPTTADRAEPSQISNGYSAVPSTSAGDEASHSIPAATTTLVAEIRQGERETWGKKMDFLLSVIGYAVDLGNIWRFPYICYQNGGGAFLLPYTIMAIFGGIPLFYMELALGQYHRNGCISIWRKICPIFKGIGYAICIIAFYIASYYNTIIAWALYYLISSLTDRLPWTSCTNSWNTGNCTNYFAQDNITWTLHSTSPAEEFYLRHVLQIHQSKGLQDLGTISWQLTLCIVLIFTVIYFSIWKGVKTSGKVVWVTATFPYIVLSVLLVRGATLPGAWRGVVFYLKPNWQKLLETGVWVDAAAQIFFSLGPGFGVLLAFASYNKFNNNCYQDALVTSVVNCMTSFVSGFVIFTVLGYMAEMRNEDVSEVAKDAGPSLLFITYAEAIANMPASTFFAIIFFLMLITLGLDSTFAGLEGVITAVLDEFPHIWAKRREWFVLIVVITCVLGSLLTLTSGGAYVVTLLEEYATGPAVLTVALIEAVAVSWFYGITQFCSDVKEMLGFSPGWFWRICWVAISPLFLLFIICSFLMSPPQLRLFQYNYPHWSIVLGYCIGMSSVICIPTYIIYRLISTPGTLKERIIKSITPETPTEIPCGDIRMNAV
T3 sequence (P23977 whole entry): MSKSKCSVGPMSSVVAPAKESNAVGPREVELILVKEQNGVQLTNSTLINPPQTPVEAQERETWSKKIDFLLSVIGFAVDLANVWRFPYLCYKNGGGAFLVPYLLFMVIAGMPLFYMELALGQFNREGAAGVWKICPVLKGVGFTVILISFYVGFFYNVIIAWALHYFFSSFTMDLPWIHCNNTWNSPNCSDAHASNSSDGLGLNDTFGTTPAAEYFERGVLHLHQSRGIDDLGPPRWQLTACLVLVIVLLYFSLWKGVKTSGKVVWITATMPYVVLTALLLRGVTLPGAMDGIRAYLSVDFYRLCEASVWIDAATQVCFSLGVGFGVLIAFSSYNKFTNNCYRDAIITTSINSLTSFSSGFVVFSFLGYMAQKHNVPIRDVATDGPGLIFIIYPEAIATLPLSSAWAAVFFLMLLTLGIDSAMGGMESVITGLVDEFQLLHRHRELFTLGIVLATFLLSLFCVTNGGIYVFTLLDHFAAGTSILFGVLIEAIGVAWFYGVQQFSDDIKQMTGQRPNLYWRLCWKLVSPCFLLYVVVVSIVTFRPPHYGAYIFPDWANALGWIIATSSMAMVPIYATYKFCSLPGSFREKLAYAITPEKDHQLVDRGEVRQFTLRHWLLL
T1 sequence (Q63380 1-617): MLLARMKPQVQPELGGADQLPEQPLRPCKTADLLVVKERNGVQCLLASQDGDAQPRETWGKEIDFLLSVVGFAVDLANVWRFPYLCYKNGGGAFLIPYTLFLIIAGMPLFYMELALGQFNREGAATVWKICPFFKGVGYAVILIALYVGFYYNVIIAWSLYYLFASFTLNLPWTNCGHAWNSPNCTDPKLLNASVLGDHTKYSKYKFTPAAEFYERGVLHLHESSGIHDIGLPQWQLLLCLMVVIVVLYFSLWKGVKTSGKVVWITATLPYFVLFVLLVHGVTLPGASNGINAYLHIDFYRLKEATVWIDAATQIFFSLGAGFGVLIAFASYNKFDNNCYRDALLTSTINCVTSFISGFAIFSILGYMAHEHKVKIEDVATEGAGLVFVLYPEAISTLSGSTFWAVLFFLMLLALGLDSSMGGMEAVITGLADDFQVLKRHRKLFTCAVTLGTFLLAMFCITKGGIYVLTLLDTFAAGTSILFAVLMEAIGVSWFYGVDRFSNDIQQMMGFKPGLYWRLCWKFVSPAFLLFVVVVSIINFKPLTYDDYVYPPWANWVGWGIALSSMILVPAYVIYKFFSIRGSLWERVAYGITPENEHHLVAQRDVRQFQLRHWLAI

For the compound `Clc1ccc(C2(c3csc(=Nc4ccccc4)n3-c3ccccc3)CCC2)cc1Cl` [Example 27, 4-[1-(3,4-Dichlorophenyl)cyclobutyl]-3-phenyl-2-phenylimino-2,3-dihydrothiazole hydrobromide], the inhibition at 1 µM in assay [1] is under 50%; in assay [2], under 50%; in assay [3] it was 84%.

For the compound `CC(C)(C1=CSC2=NCCN12)c1ccc(Cl)c(Cl)c1` [Example 11, 3-[1-(3,4-dichlorophenyl)-1-methylethyl]-5,6-dihydroimidazo[2,1-b]-thiazole hydrobromide], the inhibition at 1 µM in assay [1] is under 50%; in assay [2], 57%; in assay [3], 102%.

Consider `COc1ccc(CCN=c2scc(C3(c4ccc(Cl)c(Cl)c4)CCC3)n2CCc2ccc(OC)c(OC)c2)cc1OC` [Example 33, 4-[1-(3,4-Dichlorophenyi)cyclobutyl]-3-(3,4-dimethoxyphenethyl)-2-(3,4-dimethoxyphenethylimino)-2,3-dihydnothiazole hydrobromide], for which the inhibition at 1 µM in assay [1] is under 50%; in assay [2], 63%; in assay [3], 99%.

For the compound `COc1ccc(CCN=c2scc(C3(c4ccc(Cl)cc4)CCCC3)n2CCc2ccc(OC)c(OC)c2)cc1OC` [Example 67, 4-[1-(4-Chlorophenyl)cyclopentyl]-3-(3,4-dimethoxyphenethyl)-2-(3,4-dimethoxyphenethylimino)-2,3-dihydrothiazole hydrobromide], the results for the inhibition at 1 µM in assay [1], in assay [2] and in assay [3] were under 50%, under 50% and 88%, respectively.

Turning to `CC(C)N=c1scc(C2(c3ccc(Cl)c(Cl)c3)CCC2)n1C(C)C` [Example 17, 4-[1-(3,4-Dichlorophenyl)cyclobutyl]-3-isopropyl-2-isopropylimino-2,3-dihydrothiazole hydrobromide], the inhibition at 1 µM was 63% in assay [1], 95% in assay [2] and 112% in assay [3].

As to `CCCCN=c1scc(C2(c3ccc(Br)cc3)CCC2)n1CCCC` [Example 57, 4-[1-(4-Bromophenyl)cyclobutyl]-3-butyl-2-butylimino-2,3-dihydrothiazole hydrobromide], the results for the inhibition at 1 µM in assay [1], in assay [2] and in assay [3] were under 50%, under 50% and 94%, respectively.

For `C1=C(C2(c3cc4ccccc4s3)CCC2)N2CCN=C2S1` [Example 12, 3-[1-(benzo[b]thiophen-2-yl)cyclobutyl]-5,6-dihydroimidazo[2,1-b]thiazole hydrobromide], the inhibition at 1 µM worked out at 95% in assay [1], 77% in assay [2] and 121% in assay [3].

As to `COCCC1=C(C2(c3ccc(Cl)c(Cl)c3)CCC2)N2CCN=C2S1` [Example 8, 3-[1-(3,4-dichlorophenyl)cyclobutyl]-2-(2-methoxyethyl)-5,6-dihydroimidazo[2,1-b]-thiazole hydrobromide], the inhibition at 1 µM is under 50% in assay [1], 62% in assay [2] and under 50% in assay [3].

`CCCCN=c1scc(C2(c3ccc(Cl)c(Cl)c3)CCC2)n1CCCC` [Example 18, 3-Butyl-2-butylimino-4-[1-(3,4-dichlorophenyl)cyclobutyl]-2,3-dihydrothiazole hydrobromide]: the inhibition at 1 µM in assay [1] is 63%; in assay [2], 95%; in assay [3], 106%.

In the case of `Clc1ccc(C2(C3=C(Cc4ccccc4)SC4=NCCN43)CCC2)cc1` [Example 7, 2-benzyl-3-[1-(4-chlorophenyl)cyclobutyl]-5,6-dihydroimidazo[2,1-b]-thiazole hydrobromide], the values for the inhibition at 1 µM in assay [1], in assay [2] and in assay [3] were under 50%, 85% and 69%, respectively.

For `CC(C)(C1=CSC2=NCCN12)c1ccc(Cl)cc1` [Example 73, 3-[1-(4-Chlorophenyl)-1-methylethyl]-5,6-dihydroimidazo[2,1-b]thiazole hydrobromide], the inhibition at 1 µM is under 50% in assay [1], under 50% in assay [2] and 59% in assay [3].

In the case of `Clc1ccc(C2=C(C3(c4ccc(Cl)c(Cl)c4)CCC3)N3CCN=C3S2)cc1` [Example 10, 2-(4-chlorophenyl)-3-[1-(3,4-dichlorophenyl)cyclobutyl]-5,6-dihydroimidazo[2,1-b]thiazole hydrobromide], the inhibition at 1 µM was under 50% in assay [1], 57% in assay [2] and 85% in assay [3].

With `Fc1ccc(CN=c2scc(C3(c4ccc5ccccc5c4)CCC3)n2Cc2ccc(F)cc2)cc1` [Example 45, 3-(4-Fluorobenzyl)-2-(4-fluorobenzylimino)-4-[1-(2-naphthyl)cyclobutyl]-2,3-dihydrothiazole hydrobromide], the inhibition at 1 µM in assay [1] is under 50%; in assay [2], 59%; in assay [3], 96%.

Consider `CSc1ccc(C2(C3=CSC4=NCCN34)CCC2)cc1` [Example 76, 3-[1-(4-Methylthiophenyl)cyclobutyl]-5,6-dihydroimidazo[2,1-b]thiazole hydrobromide], for which the results for the inhibition at 1 µM in assay [1], in assay [2] and in assay [3] were under 50%, 81% and under 50%, respectively.
